“Also recorded” adds a separate entry of the source. Read-outs that look alike come from different tables or passages of the source.
What was measured:
mushroom tyrosinase [1] = assay: Mushroom tyrosinase inhibitory assay (L-tyrosine or L-DOPA as substrate); assay type: biochemical, Agaricus bisporus; settings: for IC50: mean ± SEM of triplicate experiments; for Tyrosinase inhibitory activity (in words) / Inhibitory effect at the concentration of 200 µM: mushroom tyrosinase; for Tyrosinase inhibitory activity (in words): L-tyrosine and L-DOPA
Experimental: Tyrosinase inhibitory activity assay was performed using mushroom tyrosinase as described previously, with minor modification, [36]. […] […] The reaction mixtures were incubated at 37 °C for 30 min. After that, the amount of dopachrome produced in each well was measured by spectrophotometric analysis at 492 nm (OD492) using a microplate reader.

B16F10 melanoma cells [2] = assay: Melanin contents assay in α-MSH and IBMX-stimulated cells; assay type: cell-based, Murine; settings: BID3 1, 5, and 20 µM (methods: 1, 5, and 10 µM), 48 h
Experimental: Melanin content was determined as described previously. B16F10 melanoma cells (2 × 10^5 cells/well) were seeded in 6-well culture plates. […] After washed twice with PBS, the cells were detached by incubation in Trypsin/EDTA, and the pellets were dissolved in 100 µL of 1 N NaOH, and then incubated at 60 °C for 1 h and mixed to solubilize the melanin. The melanin contents were determined by measuring absorbance at 405 nm by using the ELISA reader (TECAN, Sunrise, Austria). The melanin content was calculated using the following equation: (Δsample/Δcontrol) × 100%. All determinations were performed in triplicate.

B16F10 melanoma cells [3] = assay: Cell viability assay (EZ-Cytox); assay type: cell-based, Murine; settings: 1–20 µM, 24 h and 48 h
Experimental: Murine melanoma B16F10 cells were purchased from the Korean Cell Line Bank (KCLB, Seoul, Korea) and cultured in DMEM supplemented with 10% FBS and 1% streptomycin, and then incubated at 37 °C, humidified with 5% atmospheric CO2. Cell viability analyses were performed as previously described. Briefly, cells seeded at a density of 1 × 10^4 cells/well in a 96-well plate for 24 h. On the following day, the cells were exposed to different concentrations of BID3 and incubated for 24 or 48 h, respectively. Then, 10 µL EZ-Cytox solution was added to each well and the cells were incubated for 2–4 h. Absorbance was determined using ELISA at a wavelength of 450 nm. Each assay was performed in triplicate.

mushroom tyrosinase [4] = assay: Enzyme kinetic analysis with tyrosinase (Lineweaver-Burk and Dixon plots); assay type: biochemical, Agaricus bisporus; settings: L-DOPA as substrate
Experimental: To determine the kinetic mechanisms of inhibition, two complimentary kinetics methods were used: Lineweaver–Burk and Dixon plots, [38], [39]. Using Lineweaver-Burk plots (double reciprocal plots), the inhibition type of BID3 was determined using various concentrations of L-DOPA (0.125, 0.25, 0.5, and 1 mM), as substrates, in the absence and presence of various concentrations of BID3 (1, 2, and 4 μM). A Dixon plot (single reciprocal plots) for tyrosinase inhibition was obtained in the presence of various concentrations of L-DOPA (0.125, 0.25, 0.5, and 1 mM). The concentrations of BID3 were 1, 2, and 4 µM. The enzymatic procedures consisted of the previously described tyrosinase assay methods. The inhibition constant (Ki) was determined from the interpretation of Dixon plots.

[5] = target: T1, cellular tyrosinase of B16F10 cells (Mus musculus, UniProt P11344); assay: Cellular tyrosinase activity in α-MSH and IBMX-stimulated cells; assay type: cell-based, Murine; settings: BID3 1, 5, and 20 µM (methods: 1, 5, and 10 µM), 48 h
T1 construct: endogenous in cells; host or cells: B16F10 melanoma cells
T1 sequence (P11344 19-533): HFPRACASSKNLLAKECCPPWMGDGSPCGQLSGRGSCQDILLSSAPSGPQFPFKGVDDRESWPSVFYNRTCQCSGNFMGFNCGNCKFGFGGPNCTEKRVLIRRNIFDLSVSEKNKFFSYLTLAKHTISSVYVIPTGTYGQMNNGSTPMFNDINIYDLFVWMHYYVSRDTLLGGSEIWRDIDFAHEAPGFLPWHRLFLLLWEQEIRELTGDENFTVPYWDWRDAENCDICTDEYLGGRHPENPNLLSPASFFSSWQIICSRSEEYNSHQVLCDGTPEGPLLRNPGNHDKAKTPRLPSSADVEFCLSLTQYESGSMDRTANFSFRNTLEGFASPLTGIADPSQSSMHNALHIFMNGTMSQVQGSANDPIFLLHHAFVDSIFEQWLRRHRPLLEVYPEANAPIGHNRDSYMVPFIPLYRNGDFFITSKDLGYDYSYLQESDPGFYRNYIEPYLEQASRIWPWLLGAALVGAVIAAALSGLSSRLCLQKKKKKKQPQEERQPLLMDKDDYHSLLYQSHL
Experimental: Cellular tyrosinase activity was assessed as described previously, with slight modifications, [45]. Briefly, 2 × 10^5/cells were plated in 6-well dishes and incubated overnight. […] After being rinsed twice with PBS, the cells were lysed with 100 µL lysis solution containing 50 mM phosphate buffer (pH 6.5), 0.1 mM phenylmethylsulfonylfluoride (PMSF), and 1% Triton X-100 and frozen at −80 °C for 30 min. Lysates were thawed and centrifuged at 12,000 rpm for 30 min at 4 °C. […] After incubation at 37 °C for 30 min, the optical density at 492 nm was measured using an ELISA reader (TECAN, Salzburg, Austria). The protein concentration was determined using BCA protein assay reagent using […] (Thermo Scientific, Rockford, IL, USA).

tyrosinase = settings: cited from earlier work
[6] = L-DOPA substrate, read-out: IC50 (μM), L-DOPA as substrate (diphenolase activity)
[7] = L-tyrosine substrate, read-out: IC50 (μM), L-tyrosine as substrate (monophenolase activity)

IC50 (mushroom tyrosinase [1]; [6]) | IC50 (mushroom tyrosinase [1]; [7]) | melting point | Structure (SMILES) | further results
52.9 ± 2.62 µM | 41.3 ± 3.03 µM | – | O=C1/C(=C/c2ccc(O)c(O)c2)Cc2ccccc21 [BID2, (E)-2-(3,4-Dihydroxybenzylidene)-2,3-dihydro-1H-inden-1-one] | –
1.39 ± 4e-05 µM | 0.034 ± 0.00224 µM | – | O=C1/C(=C/c2ccc(O)cc2O)Cc2ccccc21 [BID3, (E)-2-(2,4-Dihydroxybenzylidene)-2,3-dihydro-1H-inden-1-one] | Melanin contents (B16F10 melanoma cells [2]): decreased; also recorded: concentration dependently decrease; Cytotoxic effect on B16F10 cells (B16F10 melanoma cells [3]): no significant cytotoxic effect; also recorded: without inducing cytotoxicity; Ki (mushroom tyrosinase [4]; Dixon plot): 2400 nM; Type of tyrosinase inhibition (mushroom tyrosinase [4]; Lineweaver-Burk and Dixon plots): mixed-type inhibition; also recorded: mixed-type inhibitor; Cellular tyrosinase activity [5]: inhibited; also recorded: concentration dependently decrease
> 200 µM | 73.5 ± 5.78 µM | – | COc1cc(/C=C2\Cc3ccccc3C2=O)ccc1O [BID4, (E)-2-(4-Hydroxy-3-methoxybenzylidene)-2,3-dihydro-1H-inden-1-one] | Tyrosinase inhibitory activity (in words) (mushroom tyrosinase [1]): moderate tyrosinase inhibitory activity
> 200 µM | > 200 µM | 164.4 to 165.2 °C | COc1cc(/C=C2\Cc3ccccc3C2=O)cc(OC)c1OC [BID10, (E)-2-(3,4,5-Trimethoxybenzylidene)-2,3-dihydro-1H-inden-1-one] | –
> 200 µM | 75.2 ± 2.24 µM | 190.2 to 191.1 °C | COc1cc(/C=C2\Cc3ccccc3C2=O)cc(OC)c1O [BID11, (E)-2-(4-Hydroxy-3,5-dimethoxybenzylidene)-2,3-dihydro-1H-inden-1-one] | Tyrosinase inhibitory activity (in words) (mushroom tyrosinase [1]): moderate tyrosinase inhibitory activity
75.3 ± 7.94 µM | > 200 µM | 267.4 to 268.1 °C | O=C1/C(=C/c2cc(Br)c(O)c(Br)c2)Cc2ccccc21 [BID13, (E)-2-(3,5-Dibromo-4-hydroxybenzylidene)-2,3-dihydro-1H-inden-1-one] | –
> 200 µM | > 200 µM | – | O=C(O)c1ccccc1C(=O)O [Phthalic acid, phthalic acid, reference compound] | Reported type of tyrosinase inhibition (tyrosinase): mixed-mode tyrosinase inhibitor; Inhibitory effect at the concentration of 200 µM (mushroom tyrosinase [1]): no inhibitory effect

More lines, now with the values behind:

Structure (SMILES) | IC50 (mushroom tyrosinase [1]; [6]) | IC50 (mushroom tyrosinase [1]; [7]) | melting point | further results
O=C1/C(=C/c2ccc(O)cc2)Cc2ccccc21 [BID1, (E)-2-(4-Hydroxybenzylidene)-2,3-dihydro-1H-inden-1-one] | 130 ± 5.39 µM | 39.7 ± 3.71 µM | – | –
CCOc1cc(/C=C2\Cc3ccccc3C2=O)ccc1O [BID5, (E)-2-(3-Ethoxy-4-hydroxybenzylidene)-2,3-dihydro-1H-inden-1-one] | > 200 µM | > 200 µM | 135.8 to 136.4 °C | –
COc1ccc(/C=C2\Cc3ccccc3C2=O)cc1O [BID6, (E)-2-(3-Hydroxy-4-methoxybenzylidene)-2,3-dihydro-1H-inden-1-one] | 50.8 ± 2.16 µM | 5 ± 0.91 µM | – | –
COc1ccc(/C=C2\Cc3ccccc3C2=O)cc1 [BID7, (E)-2-(4-Methoxybenzylidene)-2,3-dihydro-1H-inden-1-one] | > 200 µM | > 200 µM | – | –
COc1ccc(/C=C2\Cc3ccccc3C2=O)cc1OC [BID8, (E)-2-(3,4-Dimethoxybenzylidene)-2,3-dihydro-1H-inden-1-one] | > 200 µM | > 200 µM | 176.5 to 177.2 °C | –
COc1ccc(/C=C2\Cc3ccccc3C2=O)c(OC)c1 [BID9, (E)-2-(2,4-Dimethoxybenzylidene)-2,3-dihydro-1H-inden-1-one] | 96.9 ± 9.78 µM | > 200 µM | – | –
O=C1/C(=C/c2ccc(O)c(Br)c2)Cc2ccccc21 [BID12, (E)-2-(3-Bromo-4-hydroxybenzylidene)-2,3-dihydro-1H-inden-1-one] | > 200 µM | > 200 µM | 225 to 226.2 °C | –
O=C(O)/C=C/c1ccccc1 [Cinnamic acid, trans-cinnamic acid, reference compound] | > 200 µM | > 200 µM | – | Reported type of tyrosinase inhibition (tyrosinase): mixed-mode tyrosinase inhibitor; Inhibitory effect at the concentration of 200 µM (mushroom tyrosinase [1]): no inhibitory effect
O=c1cc(CO)occ1O [Kojic acid, kojic acid] | – | – | – | Reported type of tyrosinase inhibition (tyrosinase): competitive type inhibitor
